Experimental data reported in article PMC12067315 (European journal of medicinal chemistry, 2022).
Read-outs that look alike come from different tables or passages of the source.

Experiments:
α2A-AR = molecular target: T1, α2A-AR (Homo sapiens, UniProt P08913); format: binding
T1 sequence (P08913 1-465): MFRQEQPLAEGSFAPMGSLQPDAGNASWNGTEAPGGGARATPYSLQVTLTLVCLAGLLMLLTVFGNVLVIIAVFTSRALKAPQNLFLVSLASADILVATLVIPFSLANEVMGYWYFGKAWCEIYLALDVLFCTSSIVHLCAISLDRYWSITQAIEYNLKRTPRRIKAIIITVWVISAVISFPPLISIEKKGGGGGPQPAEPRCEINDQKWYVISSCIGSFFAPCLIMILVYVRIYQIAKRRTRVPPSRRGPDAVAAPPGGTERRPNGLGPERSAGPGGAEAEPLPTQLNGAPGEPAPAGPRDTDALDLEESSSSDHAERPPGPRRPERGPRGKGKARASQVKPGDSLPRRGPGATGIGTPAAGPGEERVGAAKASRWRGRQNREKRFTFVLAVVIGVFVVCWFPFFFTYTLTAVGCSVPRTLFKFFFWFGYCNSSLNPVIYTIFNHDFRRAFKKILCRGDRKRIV

α2A [1] = conditions: read-out: α2A (nM), literature Kd; literature Kd values; cited from earlier work
α2C [2] = conditions: read-out: α2C (nM), literature Kd; literature Kd values; cited from earlier work
α2C-AR = molecular target: T2, α2C-AR (Homo sapiens, UniProt P18825); format: binding; conditions: for Subtype Selectivity (α2A/α2C): ratio between Ki for α2A vs. α2C
T2 sequence (P18825 1-462): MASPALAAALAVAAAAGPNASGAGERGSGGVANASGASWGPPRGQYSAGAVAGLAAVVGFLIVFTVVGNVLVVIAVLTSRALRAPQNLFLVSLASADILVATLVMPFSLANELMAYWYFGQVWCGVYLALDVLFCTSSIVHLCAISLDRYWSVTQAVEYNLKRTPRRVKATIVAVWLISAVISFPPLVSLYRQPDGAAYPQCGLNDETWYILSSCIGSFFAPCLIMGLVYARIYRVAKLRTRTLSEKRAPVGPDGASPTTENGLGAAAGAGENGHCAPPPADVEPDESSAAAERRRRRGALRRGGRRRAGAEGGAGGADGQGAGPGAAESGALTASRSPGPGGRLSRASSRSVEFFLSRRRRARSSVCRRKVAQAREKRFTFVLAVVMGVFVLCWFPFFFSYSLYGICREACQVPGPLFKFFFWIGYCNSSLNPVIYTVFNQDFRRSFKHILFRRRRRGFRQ

α2A [3] = conditions: read-out: α2A (nM), literature Kb; literature Kb values; cited from earlier work
α2C [4] = conditions: read-out: α2C (nM), literature Kb; literature Kb values; cited from earlier work
α2C [5] = conditions: read-out: α2C (nM), literature Ki; literature Ki values; cited from earlier work
α2A [6] = conditions: read-out: α2A (nM), literature Ki; literature Ki values; cited from earlier work

Ki (α2A-AR; read-out: α2A (Ki), HEK293 membranes, 1 nM [3H]RX821002, Ki ± standard deviation) | Ki (α2C-AR; read-out: α2C (Ki), HEK293 membranes, 1 nM [3H]RX821002, Ki ± standard deviation) | SMILES | Kd (α2A [1]) | Kd (α2C [2]) | Subtype Selectivity (α2A/α2C) (α2C-AR) | Ki (α2A-AR) | Kb (α2A [3]) | Kb (α2C [4]) | Ki (α2C-AR) | Ki (α2C [5]) | Ki (α2A [6])
0.16 ± 0.12 nM | 0.29 ± 0.08 nM | CCS(=O)(=O)N1CCC[C@@H]2CN3CCc4cc(OC)ccc4[C@@H]3C[C@@H]21 [RS79948, reference compound] | 0.6 nM | 0.77 nM | 0.55 | – | – | – | – | – | –
– | – | COc1ccccc1C1=CC(=O)N([C@H]2CCCN(C[C@H]3COc4ccccc4O3)C2)C1 [Compound 3, 1-((S)-1-(((S)-2,3-dihydrobenzo[b][1,4]dioxin-2-yl)methyl)piperidin-3-yl)-4-(2-methoxyphenyl)-1,5-dihydro-2H-pyrrol-2-one] | – | – | 751,000 | 458 ± 26 nM | > 449 nM | < 0.001 nM | – | – | –
– | – | COCc1scnc1N1CCN(C[C@H]2COc3ccccc3O2)CC1 [Compound 1, (S)-4-(4-((2,3-dihydrobenzo[b][1,4]dioxin-2-yl)methyl)piperazin-1-yl)-5-(methoxymethyl)thiazole] | – | – | 4.24 | 1.06 ± 0.52 nM | 88 nM | < 0.1 nM | 0.25 ± 0.01 nM | – | –
– | – | COCc1c(C)nn(C)c1N1CCN(C[C@H]2COc3ccccc3O2)CC1 [Compound 2, (S)-1-((2,3-dihydrobenzo[b][1,4]dioxin-2-yl)methyl)-4-(4-(methoxymethyl)-1,3-dimethyl-1H-pyrazol-5-yl)-piperazine] | – | – | 16.6 | 12.3 ± 1.2 nM | 306 nM | 1.62 nM | 0.74 ± 0.1 nM | – | –
– | – | COc1cccc(-n2nc(C)cc2N2CCN(C[C@H]3COc4ccccc4O3)CC2)n1 [Compound 4, (S)-1-((2,3-dihydrobenzo[b][1,4]dioxin-2-yl)methyl)-4-(1-(6-methoxypyridin-2-yl)-3-methyl-1H-pyrazol-5-yl)piperazine] | – | – | 6.93 | 2.77 ± 0.58 nM | 82 nM | 0.29 nM | 0.4 ± 0.07 nM | – | –
– | – | COCc1cccnc1N1CCN(C[C@H]2COc3ccccc3O2)CC1 [ORM-13070, (S)-1-((2,3-dihydrobenzo[b][1,4]dioxin-2-yl)methyl)-4-(3-(methoxymethyl)pyridin-2-yl)piperazine, reference compound] | – | – | 11.2 | 2.8 ± 0.2 nM | – | – | 0.25 ± 0.09 nM | 3.8 nM | 109 nM
